Test results: patent publication US20080221114A1, “2-(Cyclic Aminocarbonyl) Indoline Derivative and Medicinal Composition Containing the Same” (priority 2005, published 2008)
pIC50: −log10 of the molar value.

How the values were obtained:
[1] = target: T1, mitochondrial benzodiazepine receptor (MBR) (Rattus norvegicus, UniProt P16257); test: Binding assay of mitochondrial benzodiazepine receptor (MBR), [3H]4'-chlorodiazepam (Ro5-4864), rat kidney membrane-preparation; settings: rat kidney membranes, [3H]4'-chlorodiazepam 0.5 nM, 0° C. for 150 minutes
T1 construct: from tissue; host or cells: kidney of male Wistar rats (crude membrane preparation)
Summary of the method: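 Kidney membranes from male Wistar rats were incubated with 0.5 nM [3H]Ro5-4864 in pH 7.4 sodium/potassium phosphate buffer with 100 mM NaCl for 150 min at 0 °C, then filtered. Nonspecific binding was defined with 50 μM diazepam. IC50 was obtained by nonlinear least-squares fitting of specific-binding inhibition.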

mice (male ddY) = test: Social interaction test (antianxiety effect); assay type: in vivo, mouse; settings: oral, 1 hour before test; statistically significant increase in social interaction time vs vehicle (Dunnett's test, 5%)
From the text: The test is a behavioral pharmacological test wherein social interaction time which would arise between 2 animals (mice, rats or other) in a test apparatus is considered to be as an anxious indicator [see; File, S. E., J. Neurosci. Methods, 2, 219-238 (1980)]. It is known that a bright and unfamiliar test apparatus which is an aversive condition for mice or rats may suppress a social interaction of the animals and such suppressed social interaction may be restored by an antianxiety drug such as benzodiazepines.
A glass beaker which was inverted onto a frosted glass plate was brightly illuminated with a light source (ca. 1200 lux in the apparatus), and it was used as a test apparatus. Two mice (male ddY, 22-32 g) that were housed in separate home cages were orally treated with a test compound and returned to their home cages. One hour after the oral administration, the two mice were then placed together in the test apparatus, and the amount of time spent in social interaction by the two mice during a 15-minute period was recorded. The social interaction was defined as grooming and sniffing of the partner, genital investigation of the partner, climbing over or crawling under the partner. Four to five pairs (8 to 10 mice) were used per a group.
An antianxiety effect of the test compounds was presented as a minimum effective dose which indicated statistically significant increase in social interaction time as compared with a vehicle control group (Dunnett's test, Significance level: 5%).

male Std-Wistar rats = test: Forced swimming test (antidepressant effect); assay type: in vivo, rat; settings: 1 mg/kg orally 3 times (24 hours, 4 hours and 1 hour before the test); 6-minute period; vs vehicle, p<0.01
Protocol: An animal (mouse or rat) which is forced to swim in an inescapable water tank show an immobile posture, thought to reflect a state of behavioral despair, after an initial period of vigorous swimming activity. The forced swimming test, a behavioral despair model, is frequently used for evaluating antidepressant effect since a lot of antidepressants reduce the duration of immobility induced by forced swimming. The antidepressant effect of the compound of the present invention was evaluated in the forced swimming test based on the method of Porsolt R. D. et al. [see; Eur. J. Pharmacol., 47, 379-391 (1978)] with a minor modification.
In the test, a group of five male Std-Wistar rats, weighing 110-150 g, which were selected after training session was used. […]
The test compound (the compound of Example 40) was orally administered 3 times, i.e., 24 hours, 4 hours and 1 hour before the test. One hour after the final oral administration, the rats were put into the water and the immobile time observed during a 6-minute period was recorded. The effect shortening the immobile time in the test compound-treated group was evaluated using a Dunnett's multiple comparison test as compared with the vehicle control group.

With `C[C@@H]1C[C@H](C)CN(C(=O)[C@@H]2Cc3ccccc3N2c2ncccn2)C1` [Example 24, (S)-2-(cis-3,5-dimethylpiperidin-1-yl)carbonyl-1-(2-pyrimidinyl)indoline] the pIC50 [1] was 9.07, the Minimum effective dose (mice (male ddY)) was 0.001 mg/kg and the melting point was 163 to 164 °C.

For `C[C@@H]1C[C@H](C)CN(C(=O)[C@@H]2Cc3ccccc3N2c2cccnn2)C1` [Example 57, (S)-2-[(cis-3,5-dimethylpiperidin-1-yl)-carbonyl]-1-(3-pyridazinyl)indoline], the pIC50 [1] was 8.69 and the Minimum effective dose (mice (male ddY)) was 0.1 mg/kg.

In the case of `C[C@H]1CCCN(C(=O)[C@@H]2Cc3ccccc3N2c2ccc(=O)n(C)n2)C1` [Example 40, (S)-1-(1-methyl-6-oxo-1,6-dihydropyridazin-3-yl)-2-[[(S)-3-methylpiperidin-1-yl]carbonyl]indoline], the pIC50 [1] was 8.22, the Minimum effective dose (mice (male ddY)) was 1 mg/kg and the “shortening of the immobile time” value (male Std-Wistar rats) was 28%. The melting point was 219 to 221 °C.

For `C[C@H]1CCCN(C(=O)[C@@H]2Cc3ccccc3N2c2ncccn2)C1` [Example 23, (S)-2-[(S)-3-methylpiperidin-1-yl]carbonyl-1-(2-pyrimidinyl)indoline], the pIC50 [1] was 9.02, the Minimum effective dose (mice (male ddY)) was 0.01 mg/kg and the melting point was 212 to 214 °C.

“2-[((cis-3,5-dimethylpiperidin-1-yl)-carbonyl]-1-(2-pyrimidinyl)indoline [Example 1]” showed a pIC50 [1] of 8.70 and a Minimum effective dose (mice (male ddY)) of 0.001 mg/kg.

Work on `C[C@@H]1C[C@H](C)CN(C(=O)[C@@H]2Cc3ccccc3N2c2ccc(=O)n(C)n2)C1` [Example 41, (S)-1-(1-methyl-6-oxo-1,6-dihydropyridazin-3-yl)-2-[(cis-3,5-dimethylpiperidin-1-yl)carbonyl]indoline] yielded a pIC50 [1] of 8.62, a Minimum effective dose (mice (male ddY)) of 0.01 mg/kg and a melting point of 200 to 204 °C.

Work on `C[C@H]1CCCN(C(=O)[C@@H]2Cc3ccccc3N2c2cccnn2)C1` [Example 63, (S)-2-[(S)-3-methylpiperidin-1-yl]carbonyl-1-(3-pyridazinyl)indoline] yielded a pIC50 [1] of 8.60, a Minimum effective dose (mice (male ddY)) of 0.01 mg/kg and a melting point of 143 to 145 °C.

`CCn1nc(N2c3ccccc3C[C@H]2C(=O)N2CCC[C@H](C)C2)ccc1=O` [Example 129, (S)-1-(1-ethyl-6-oxo-1,6-dihydropyridazin-3-yl)-2-[[(S)-3-methylpiperidin-1-yl]carbonyl]indoline] gave a pIC50 [1] of 8.25 and a Minimum effective dose (mice (male ddY)) of 1 mg/kg.

Work on `O=C(C1Cc2ccccc2N1c1ncccn1)N1CCCC(c2ccccc2)C1` (racemic) [Example 51] yielded a pIC50 [1] of 7.67 and a melting point of 145 to 151 °C.

Compound `O=C(C1Cc2ccccc2N1c1ncccn1)N1CCCCC1` (centres unmarked) [Example 7] has a pIC50 [1] of 6.91 and a melting point of 149 to 151 °C.
